Legend:
Rattus norvegicus [1] = organism: Rattus norvegicus
[2] = (§1) Partition coefficient (logD7.4); details: octanol/water, pH 7.4
physchem [3] = details: octanol/water
physchem [4] = details: octanol/water; remark: listed apart in the source
[5] = not given; remark: listed apart in the source
[6] = not given; remark: listed apart in the source
[7] = not given; remark: listed apart in the source
[8] = octanol/water
Description: Partition coefficient (logD, measured by HPLC, log k')

[9] = not given; remark: listed apart in the source
[10] = not given; remark: listed apart in the source
[11] = not given; remark: listed apart in the source
[12] = (§2) logD (measured by HPLC) (as log k'); type: ADME
[13] = not given; remark: listed apart in the source
[14] = not given; remark: listed apart in the source
[15] = (§3) Partition coefficient (logD) (HPLC); type: physicochemical; details: octanol/water
[16] = as §2; type: ADME; remark: listed apart in the source
[17] = as §1; details: octanol/water, pH 7.4; remark: listed apart in the source
physchem [18] = details: octanol/water, pH 7.4
Rattus norvegicus [19] = organism: Rattus norvegicus; remark: listed apart in the source
Description: Apparent partition coefficient was measured as histamine releasing activity in rat mast cells.

Rattus norvegicus [20] = organism: Rattus norvegicus; remark: listed apart in the source
[21] = as §3; type: physicochemical; details: octanol/water; remark: listed apart in the source
[22] = not given; remark: listed apart in the source
physchem [23] = details: octanol/water; remark: listed apart in the source
physchem [24] = details: octanol/water; remark: listed apart in the source
[25] = not given; remark: listed apart in the source
[26] = not given; remark: listed apart in the source
[27] = not given; remark: listed apart in the source
[28] = not given; remark: listed apart in the source
[29] = not given; remark: listed apart in the source
Rattus norvegicus [30] = organism: Rattus norvegicus; test: Log (1/ED50) was measured as histamine releasing activity in rat mast cells; log(1/ED50*10e-3).; type: functional
[31] = not given; remark: listed apart in the source
[32] = as §1; type: physicochemical; details: octanol/water, pH 7.4

Compound | Log k' | logD [2] | Log k' [5] | Log k' [6] | Log k' [7] | Log k' [8] | Log k' [10] | Log k' [11] | Log k' [13] | logD [15] | logD (physchem [18]) | logD [21] | Log k' [25] | Log k' [26] | also measured
CC(=O)c1ccc2c(c1)N(CCCN1CCN(CCO)CC1)c1ccccc1S2 [ACETOPHENAZINE] | 0.808 | 2.62 | 1.301 |  |  |  |  |  |  |  |  |  |  |  | Log 1/ED50 (Rattus norvegicus [1]): 2.12; logD (physchem [3]): 0.728; logD (physchem [4]): 0.366
c1ccc2nc3ccccc3cc2c1 [ACRIDINE] | 1.447 | 3.29 | 2.103 | 0.775 | 0.685 | 1.993 | 2.146 | 1.501 |  |  |  |  |  |  | Log k' [9]: 1.556
CN(C)CCC=C1c2ccccc2CCc2ccccc21 [AMITRIPTYLINE] |  | 2.83 | 1.641 |  | 1.264 |  |  |  | 1.279 | 2.83 | 2.5 |  |  |  | Log k' [12]: 1.214; Log k' [14]: 1.419; Log k' [16]: 0.753; pKa [17]: 9.4; Papp (Rattus norvegicus [19]): 2.3; Log 1/ED50 (Rattus norvegicus [20]): 1.85
COc1ccccc1 [ANISOLE] | 0.885 | 2.09 |  | 0.264 | 0.381 |  | 0.928 | 0.332 |  | 0.353 |  | 0.872 |  |  | logD [22]: 2.086
c1ccccc1 [BENZENE] |  |  |  |  |  | 0.874 |  |  |  |  |  |  |  |  | 
Clc1ccccc1 [CHLOROBENZENE] | 1.61 | 2.87 | 1.61 | 0.773 | 1.022 |  | 1.631 | 1.027 |  | 1.05 |  | 1.56 |  |  | 
CN(C)CCC(c1ccc(Cl)cc1)c1ccccn1 (stereo not drawn) [CHLORPHENIRAMINE] | 0.074 | 1.38 | 0.262 | 0.334 | -0.329 |  | 0.273 | 0.007 |  | 0.466 |  | 0.466 |  |  | logD (physchem [23]): 1.51; logD (physchem [24]): 1.53
CN(C)CCCN1c2ccccc2Sc2ccc(Cl)cc21 [CHLORPROMAZINE] |  | 3.221 |  |  |  | 2.061 | 2.144 | 1.656 | 1.751 |  | 3.17 |  | 1.086 | 1.632 | Log k' [12]: 1.911; Log k' [27]: 1.667; Log k' [28]: 2.144; Log k' [29]: 1.911; Papp (Rattus norvegicus [19]): 2.92
CN(C)CC/C=C1/c2ccccc2Sc2ccc(Cl)cc21 [CHLORPROTHIXENE] |  |  |  |  |  |  |  |  |  |  |  |  |  |  | Log k' [12]: 2.142; Histamine release (Rattus norvegicus [30]): 2.57; Papp (Rattus norvegicus [19]): 2.67
CN1CCN(C2=Nc3cc(Cl)ccc3Nc3ccccc32)CC1 [CLOZAPINE] | 1.725 | 2.99 | 1.73 |  |  |  | 1.734 | 1.136 |  | 1.4 |  | 1.66 | 0.817 | 1.15 | 
CN1CCC(=C2c3ccccc3C=Cc3ccccc32)CC1 [CYPROHEPTADINE] |  | 3.11 |  |  |  | 1.853 | 1.999 | 1.516 | 1.527 |  | 3.14 |  | 1.037 | 1.43 | Log k' [14]: 1.715; Log k' [27]: 1.529; Log k' [29]: 1.715; Log k' [31]: 1.984
CCCCOc1cc(C(=O)NCCN(CC)CC)c2ccccc2n1 [DIBUCAINE] | 1.11 | 2.91 | 1.642 | 0.915 | 0.501 | 1.588 | 1.651 | 1.064 |  |  |  |  |  |  | Log k' [9]: 1.215
CN(C)CCC=C1c2ccccc2COc2ccccc21 [DOXEPIN] |  | 2.22 |  |  |  | 1.044 | 1.115 | 0.632 | 0.778 |  | 2.2 |  | 0.33 | 0.886 | logD (physchem [23]): 2.32; Log k' [14]: 1.025; Log k' [27]: 0.642; logD [32]: 2.22; Log k' [29]: 1.025; Log k' [31]: 1.086; logD (physchem [24]): 2.36
